Measured values as given in US12172975B2, “1H-indazole carboxamides as receptor-interacting protein kinase 1 inhibitors (RIPK1)” (BRISTOL-MYERS SQUIBB COMPANY, priority 2018, dated 2024).
Counter-ions that a name gives are not always drawn. Like-named read-outs stand apart in the source and are kept apart here.

Experiments:
[1] = test system: MLKL phosphorylation in HT29-L23 human colorectal adenocarcinoma cells; experiment: MLKL Phosphorylation High-Content Assay; type: cell-based; conditions: 6 h, necroptosis induced with TNFα, SMAC mimetic and Z-VAD, read-out: pMLKL (IC50)
How it was run: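 HT29-L23 cells were induced to necroptosis with TNFα (35 ng/mL), SMAC mimetic (700 nM) and Z-VAD (140 nM) for 6 h at 37 °C. Phospho-MLKL (S358) immunofluorescence was imaged and quantified per cell; maximal inhibition set by Nec-1s (6.25 μM), and IC50/Ymax from 4-parameter logistic fit.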

[2] = molecular target: His-GST-TVMV-hRIPK1 (1-324) (Homo sapiens (Human), UniProt Q13546); experiment: RIPK1 HTRF Binding Assay; conditions: read-out: RIPK1 HTRF (IC50); FRET probe displacement, 1 h at rt
His-GST-TVMV-hRIPK1 (1-324), sequence (Q13546 1-324): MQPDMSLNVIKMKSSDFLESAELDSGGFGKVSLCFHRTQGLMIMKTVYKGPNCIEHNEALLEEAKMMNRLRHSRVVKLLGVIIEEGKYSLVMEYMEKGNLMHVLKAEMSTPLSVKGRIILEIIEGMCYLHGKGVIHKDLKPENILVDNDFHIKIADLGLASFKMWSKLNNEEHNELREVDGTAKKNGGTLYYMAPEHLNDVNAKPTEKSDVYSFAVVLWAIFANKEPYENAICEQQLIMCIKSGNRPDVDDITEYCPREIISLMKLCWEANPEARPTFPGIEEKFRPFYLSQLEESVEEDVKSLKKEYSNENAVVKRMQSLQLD

COc1ncc(-c2ccc3c(C(=O)NC4CC(=O)N(C)C4)n[nH]c3c2)cc1C(=O)NCc1ccccc1OC(F)(F)F (stereo not shown) [Example 187, 6-[6-methoxy-5-({[2-(trifluoro-methoxy)phenyl]methyl}-carbamoyl)pyridin-3-yl]-N-(1-methyl-5-oxopyrrolidin-3-yl)-1H-indazole-3-carboxamide, TFA]
IC50 ([1]; Homo sapiens): 78 nM | IC50 [2]: 28 nM

COc1ncc(-c2ccc3c(C(=O)NC4CCC(O)CC4)n[nH]c3c2)cc1C(=O)NCc1ccccc1OC(F)(F)F (stereo not shown) [Example 189, 6-[6-methoxy-5-({[2-(trifluoro-methoxy)phenyl]methyl}-carbamoyl)pyridin-3-yl]-N-[(1r,4r)-4-hydroxycyclohexyl]-1H-indazole-3-carboxamide]
IC50 ([1]; Homo sapiens): 30 nM | IC50 [2]: 9.6 nM

[2H]C([2H])([2H])Oc1ncc(-c2ccc3c(C(=O)NC4CC4)n[nH]c3c2)cc1C(=O)N[C@@H]1CN(C(=O)C2CC(F)(F)C2)C[C@@H]1F [Example 190, N-cyclopropyl-6-(5-{[(3R,4S)-1-(3,3-difluorocyclobutanecarbonyl)-4-fluoropyrrolidin-3-yl]carbamoyl}-6-(deutero)methoxypyridin-3-yl)-1H-indazole-3-carboxamide]
IC50 ([1]; Homo sapiens): 290 nM | IC50 [2]: 100 nM

[2H]C([2H])([2H])Oc1ncc(-c2ccc3c(C(=O)NC4CC(F)(F)C4)n[nH]c3c2)cc1C(=O)N[C@@H]1CN(C(=O)C2CC(F)(F)C2)C[C@@H]1F [Example 191, 6-(5-{[(3R,4S)-1-(3,3-difluorocyclo-butanecarbonyl)-4-fluoropyrrolidin-3-yl]carbamoyl}-6-(deutero)methoxy-pyridin-3-yl)-N-(3,3-difluorocyclo-butyl)-1H-indazole-3-carboxamide]
IC50 ([1]; Homo sapiens): 89 nM | IC50 [2]: 120 nM

[2H]C([2H])([2H])Oc1ncc(-c2ccc3c(C(=O)NCC(C)(C)F)n[nH]c3c2)cc1C(=O)N[C@@H]1CN(C(=O)C2CC(F)(F)C2)C[C@@H]1F [Example 193, 6-(5-{[(3R,4S)-1-(3,3-difluorocyclo-butanecarbonyl)-4-fluoropyrrolidin-3-yl]carbamoyl}-6-(deutero)methoxy-pyridin-3-yl)-N-(2-fluoro-2-methyl-propyl)-1H-indazole-3-carboxamide]
IC50 ([1]; Homo sapiens): 480 nM | IC50 [2]: 260 nM

[2H]C([2H])([2H])Oc1ncc(-c2ccc3c(C(=O)NC4CC4)n[nH]c3c2)cc1C(=O)N[C@@H](C)c1cc(C(F)(F)F)ccc1F [Example 194, N-cyclopropyl-6-(5-{[(1S)-1-[2-fluoro-5-(trifluoromethyl)phenyl]-ethyl]carbamoyl}-6-(deutero)meth-oxypyridin-3-yl)-1H-indazole-3-carboxamide]
IC50 ([1]; Homo sapiens): 52 nM | IC50 [2]: 67 nM

COc1ncc(-c2ccc3c(C(=O)NC4CC4)n[nH]c3c2)cc1C(=O)N[C@@H]1CN(C(=O)C2CCC(F)(F)C2)C[C@@H]1F (stereo partly drawn) [Example 199, N-cyclopropyl-6-(5-{[(3R,4S)-1-(3,3-difluorocyclopentanecarbon-yl)-4-fluoropyrrolidin-3-yl]-carbamoyl}-6-(deutero)methoxy-pyridin-3-yl)-1H-indazole-3-carboxamide, TFA]
IC50 [1]: 99 nM | IC50 [2]: 340 nM

[2H]C([2H])([2H])Oc1ncc(-c2ccc3c(C(=O)NC4CC4)n[nH]c3c2)cc1C(=O)NCC(C)(C)C(=O)OC(C)(C)C [Example 200, tert-butyl 3-({5-[3-(cyclopropyl-carbamoyl)-1H-indazol-6-yl]-2-(deutero)methoxypyridin-3-yl}-formamido)-2,2-dimethyl-propanoate]
IC50 ([1]; Homo sapiens): 79 nM | IC50 [2]: 130 nM

[2H]C([2H])([2H])Oc1ncc(-c2ccc3c(C(=O)NC4CC4)n[nH]c3c2)cc1C(=O)N[C@H](C)c1cc(OC(F)(F)F)ccc1F [Example 201, N-cyclopropyl-6-(5-{[(1R)-1-[2-fluoro-5-(trifluoromethoxy)-phenyl]ethyl]carbamoyl}-6-(deutero)methoxypyridin-3-yl)-1H-indazole-3-carboxamide]
IC50 ([1]; Homo sapiens): 110 nM | IC50 [2]: 11 nM

[2H]C([2H])([2H])Oc1ncc(-c2ccc3c(C(=O)NC4CC4)n[nH]c3c2)cc1C(=O)N[C@H](C)c1cccc(OC(F)(F)F)c1 [Example 202, N-cyclopropyl-6-[6-(deutero)-methoxy-5-{[(1R)-1-[3-(trifluoro-methoxy)phenyl]ethyl]carbam-oyl}pyridin-3-yl]-1H-indazole-3-carboxamide]
IC50 ([1]; Homo sapiens): 53 nM | IC50 [2]: 36 nM

[2H]C([2H])([2H])Oc1ncc(-c2ccc3c(C(=O)NC4CC4)n[nH]c3c2)cc1C(=O)NC1CCCC(C(=O)N2CCC(F)(F)C2)C1 (stereo not shown) [Example 203, N-cyclopropyl-6-(5-{[3-(3,3-difluoropyrrolidine-1-carbonyl)-cyclohexyl]carbamoyl}-6-(deutero)methoxypyridin-3-yl)-1H-indazole-3-carboxamide, TFA]
IC50 ([1]; Homo sapiens): 95 nM | IC50 [2]: 12 nM

[2H]C([2H])([2H])Oc1ncc(-c2ccc3c(C(=O)NC4CC4)n[nH]c3c2)cc1C(=O)NC1CCCC(C(=O)N2CCCC2)C1 (stereo not shown) [Example 204]
IC50 ([1]; Homo sapiens): 84 nM | IC50 [2]: 12 nM

COc1ncc(-c2ccc3c(C(=O)NC4CC4)n[nH]c3c2)cc1C(=O)N[C@H](C)c1cccc(OC(F)(F)F)c1 [Example 205, N-cyclopropyl-6-[6-(deutero)-methoxy-5-{[(1R)-1-[3-(trifluoro-methoxy)phenyl](2,2,2-deutero)-ethyl]carbamoyl}pyridin-3-yl]-1H-indazole-3-carboxamide, TFA]
IC50 [1]: 60 nM | IC50 [2]: 20 nM

COc1ncc(-c2ccc3c(C(=O)NC4CC4)n[nH]c3c2)cc1C(=O)N[C@@H](C)c1cc(OC(F)(F)F)ccc1F [Example 206, N-cyclopropyl-6-(5-{[(1S)-1-[2-fluoro-5-(trifluoromethoxy)-phenyl](2,2,2-deutero)ethyl]-carbamoyl}-6-(deutero)methoxy-pyridin-3-yl)-1H-indazole-3-carboxamide]
IC50 [1]: 3.8 nM | IC50 [2]: 220 nM

COc1ncc(-c2ccc3c(C(=O)NC4CC4)n[nH]c3c2)cc1C(=O)N[C@H](C)c1cc(OC(F)(F)F)ccc1F [Example 207, N-cyclopropyl-6-(5-{[(1R)-1-[2-fluoro-5-(trifluoromethoxy)-phenyl](2,2,2-deutero)ethyl]-carbamoyl}-6-(deutero)methoxy-pyridin-3-yl)-1H-indazole-3-carboxamide]
IC50 [1]: 110 nM | IC50 [2]: 53 nM

COc1ncc(-c2ccc3c(C(=O)NC4CC4)n[nH]c3c2)cc1C(=O)N[C@@H](C)c1cc(C(F)(F)F)ccc1F [Example 208, N-cyclopropyl-6-(5-{[(1S)-1-[2-fluoro-5-(trifluoromethyl)phenyl]-(2,2,2-deutero)ethyl]carbamoyl}-6-(deutero)methoxypyridin-3-yl)-1H-indazole-3-carboxamide, TFA]
IC50 [1]: 18 nM | IC50 [2]: 27 nM

[2H]C([2H])([2H])Oc1ncc(-c2ccc3c(C(=O)NC4CC4)n[nH]c3c2)cc1C(=O)N[C@H](C)c1cccc(C(F)(F)F)c1 [Example 210, N-cyclopropyl-6-[6-(deutero)meth-oxy-5-{[(1R)-1-[3-(trifluorometh-yl)phenyl]ethyl]carbamoyl}pyridin-3-yl]-1H-indazole-3-carboxamide]
IC50 ([1]; Homo sapiens): 88 nM | IC50 [2]: 450 nM

[2H]C([2H])([2H])NC(=O)c1n[nH]c2cc(-c3cnc(OC([2H])([2H])[2H])c(C(=O)NC(C)c4cc(F)ccc4C(F)(F)F)c3)ccc12 (stereo not shown) [Example 212]
IC50 ([1]; Homo sapiens): 28 nM | IC50 [2]: 15 nM

[2H]C([2H])([2H])NC(=O)c1n[nH]c2cc(-c3cnc(OC([2H])([2H])[2H])c(C(=O)N[C@@H](C)c4cccc(C(F)(F)F)c4)c3)ccc12 [Example 214, 6-[6-(deutero)methoxy-5-{[(1S)-1-[3-(trifluoromethyl)phenyl]ethyl]carbam-oyl}pyridin-3-yl]-N-(deutero)methyl-1H-indazole-3-carboxamide]
IC50 ([1]; Homo sapiens): 36 nM | IC50 [2]: 9.8 nM

[2H]C([2H])([2H])Oc1ncc(-c2ccc3c(C(=O)NC([2H])([2H])C([2H])([2H])[2H])n[nH]c3c2)cc1C(=O)NC(C)c1cc(F)ccc1C(F)(F)F (stereo not shown) [Example 228, N-[(1,1,2,2,2-deutero)ethyl]-6-[5-({1-[5-fluoro-2-(trifluoromethyl)-phenyl]ethyl}carbamoyl)-6-(deutero)methoxypyridin-3-yl]-1H-indazole-3-carboxamide]
IC50 ([1]; Homo sapiens): 51 nM | IC50 [2]: 58 nM

CCNC(=O)c1n[nH]c2cc(-c3cnc(OC)c(C(=O)N[C@H](C)c4cccc(OC(F)(F)F)c4)c3)ccc12 [Example 232, N-[(1,1,2,2,2-deutero)ethyl]-6-[6-(deutero)methoxy-5-{[(1R)-1-[3-(trifluoromethoxy)phenyl](2,2,2-deutero)ethyl]carbamoyl}pyridin-3-yl]-1H-indazole-3-carboxamide]
IC50 [1]: 26 nM | IC50 [2]: 33 nM

CCNC(=O)c1n[nH]c2cc(-c3cnc(OC)c(C(=O)N[C@H](C)c4cc(OC(F)(F)F)ccc4F)c3)ccc12 [Example 233, N-[(1,1,2,2,2-deutero)ethyl]-6-(5-{[(1R)-1-[2-fluoro-5-(trifluorometh-oxy)phenyl](2,2,2-deutero)ethyl]-carbamoyl}-6-(deutero)methoxy-pyridin-3-yl)-1H-indazole-3-carbox-amide]
IC50 [1]: 77 nM | IC50 [2]: 54 nM

CCNC(=O)c1n[nH]c2cc(-c3cnc(OC)c(C(=O)N[C@H](C)c4cc(C(F)(F)F)ccc4F)c3)ccc12 [Example 234, N-[(1,1,2,2,2-deutero)ethyl]-6-(5-{[(1R)-1-[2-fluoro-5-(trifluorometh-yl)phenyl](2,2,2-deutero)ethyl]-carbamoyl}-6-(deutero)methoxy-pyridin-3-yl)-1H-indazole-3-carbox-amide]
IC50 [1]: 20 nM | IC50 [2]: 8.7 nM
